From paper PMC11470414, “In vitro assessment of Dracocephalum lindbergii for growth inhibition, apoptosis induction, and cytokine modulation against Leishmaniamajor” (Heliyon, 2024)
Converted amounts (≈) assume the structure as drawn. Like-named read-outs stand apart in the source and are kept apart here.

Legend:
[1] = test system: L. major; parameters: method as in PMID 33531168; details: after 16 h of incubation; control 14 %; cited from earlier work
[2] = test system: L. major amastigotes; experiment: Apoptotic profile by flow cytometry (PE-Annexin V / 7-AAD); assay type: cell-based, Leishmania major; details: 100 μg/mL, vs negative control P < 0.001
Protocol: Apoptosis in L. major amastigotes was evaluated using flow cytometry with the BD Annexin V/PE Apoptosis Detection Kit (Fisher Scientific). […] After treatment, the parasites were washed with PBS and incubated in the dark at 25 °C with 5 μL of PE-Annexin V and 7 μL of 7-AAD for 15 min. The proportion of apoptotic parasites was then evaluated using FlowJo software.

[3] = test system: L. major promastigotes; experiment: Anti-promastigote activity (MTT, IC50); assay type: cell-based, Leishmania major; details: for IC50: Leishmania major
Protocol: (§1) To assess the impact of the D. lindbergii fraction on L. major promastigotes, amastigotes, and macrophages, cell viability was determined using the 3-(4,5-dimethylthiazol-2-yl)-2,5-diphenyl tetrazolium bromide (MTT). L. major in the logarithmic growth phase (1 × 10⁶) was plated in a 96-well microplate using RPMI-1640 medium supplemented with 10 % FBS and treated with different concentrations of the samples. The plates were then incubated. Subsequently, 10 μL of MTT (Sigma Chemical Co., St. Louis, MO) at a concentration of 5 mg/mL was added to each well. After incubation, DMSO was added to stop the reactions, and the optical density (OD) absorbance of the samples was measured at 570 nm using an ELISA plate reader (BioTek Company, USA). The results were analyzed by calculating the inhibition percentage through linear regression.
Drug susceptibility assays were conducted using promastigotes in the logarithmic growth phase. A volume of 90 μL of cultured L. major promastigotes (1 × 10⁶ cells/mL) was transferred to each well of a 96-well microplate. […] The reactions were stopped, ELISA readings were taken, and the IC₅₀ (50 % inhibitory concentration) was calculated according to established protocols.

[4] = test system: L. major intramacrophage amastigotes; experiment: Anti-amastigote activity: counting Leishman bodies in 100 Giemsa-stained macrophages; assay type: cell-based, Leishmania major; details: for IC50: Leishmania major, Macrophage
Protocol: To assess the leishmanicidal effect on L. major intramacrophage amastigotes, macrophages (10⁷ cells) were cultured for 24 h. Subsequently, 200 μL of metacyclic promastigotes were introduced to the macrophages at a 10:1 ratio. […] The cells were washed with 50 μL PBS to eliminate free parasites, fixed with methanol, and stained using Giemsa. The IC₅₀, defined as the concentration required to inhibit 50 % of the leishmanial organisms, was determined by counting Leishman bodies (amastigotes) in 100 macrophages under an optical microscope. All experiments were performed in triplicate.
To evaluate the leishmanicidal effects on L. major intramacrophage amastigotes, macrophages (1 × 10⁷ cells) were cultured for 24 h. Following this, 200 μL of metacyclic promastigotes were added to the macrophages at a 10:1 ratio. […] The cells were then washed with 50 μL PBS to remove any free parasites, fixed in methanol, and stained with Giemsa. The IC₅₀, or the concentration that inhibits 50 % of the leishmanial organisms, was assessed by counting Leishman bodies (amastigotes) in 100 macrophages under an optical microscope. Each experiment was conducted in triplicate, including negative controls (macrophages and parasites without treatment) and positive controls (macrophages and parasites treated with a known effective drug) for comparison.

[5] = DPPH radical-scavenging antioxidant assay; details: DPPH method, 517 nm
Protocol: The scavenging effect on 2,2-diphenyl-1-picrylhydrazyl (DPPH) free radicals was determined based on the reduction of DPPH as a stable free radical. The optical densities were measured at a wavelength of 517 nm. The elimination of free radicals was calculated using the following formula:= (absorbance of control-absorbance of the sample) / (absorbance of control) × 100.

[6] = Toxicity on macrophages (MTT, CC50); assay type: cell-based; details: human, THP-1 macrophage cell line
Protocol: (§2) The promastigote form of L. major (MRHO/IR/75/ER), the national standard isolate, was obtained from the Pasteur Institute of Iran and cultured at 25 °C in RPMI-1640 medium containing 10 % heat-inactivated FBS and 1 % penicillin/streptomycin. The THP-1 macrophage cell line, provided by the Kerman Leishmaniasis Research Center, was grown in Dulbecco's Modified Eagle Medium (DMEM) supplemented with 10 % FBS and 0.5 % antibiotics (Sigma, Poole, UK), and incubated at 37 °C with 5 % CO₂ [21].
as §1

[7] = test system: macrophage cell line (THP-1); experiment: Toxicity on macrophages (MTT, CC50); assay type: cell-based
Protocol: as §2, §1

Row | Molecule | induction of apoptosis in intra-macrophage amastigotes [2] | average number of intramacrophage amastigotes (Mean ± SD) ([4]; 24 h, 12.5 μg/mL) | average number of intramacrophage amastigotes (Mean ± SD) ([4]; 24 h, 25 μg/mL) | average number of intramacrophage amastigotes (Mean ± SD) ([4]; 24 h, 50 μg/mL) | average number of intramacrophage amastigotes (Mean ± SD) ([4]; 24 h, 100 μg/mL) | average number of intramacrophage amastigotes (Mean ± SD) ([4]; 24 h, 200 μg/mL) | average number of intramacrophage amastigotes (Mean ± SD) ([4]; 24 h, 400 μg/mL) | average number of intramacrophage amastigotes (Mean ± SD) ([4]; 48 h, 12.5 μg/mL) | average number of intramacrophage amastigotes (Mean ± SD) ([4]; 48 h, 25 μg/mL) | average number of intramacrophage amastigotes (Mean ± SD) ([4]; 48 h, 50 μg/mL) | average number of intramacrophage amastigotes (Mean ± SD) ([4]; 48 h, 100 μg/mL) | average number of intramacrophage amastigotes (Mean ± SD) ([4]; 48 h, 200 μg/mL) | average number of intramacrophage amastigotes (Mean ± SD) ([4]; 48 h, 400 μg/mL) | average number of intramacrophage amastigotes (Mean ± SD) ([4]; 72 h, 12.5 μg/mL) | average number of intramacrophage amastigotes (Mean ± SD) ([4]; 72 h, 25 μg/mL) | average number of intramacrophage amastigotes (Mean ± SD) ([4]; 72 h, 50 μg/mL) | average number of intramacrophage amastigotes (Mean ± SD) ([4]; 72 h, 100 μg/mL) | average number of intramacrophage amastigotes (Mean ± SD) ([4]; 72 h, 200 μg/mL) | average number of intramacrophage amastigotes (Mean ± SD) ([4]; 72 h, 400 μg/mL) | further results
1 | COc1cc(/C=C/C(=O)CC(=O)/C=C/c2ccc(O)c(OC)c2)ccc1O [curcumin] | – | – | – | – | – | – | – | – | – | – | – | – | – | – | – | – | – | – | – | maximum accumulation of S-phase cells [1]: about 33%
2 | meglumine antimoniate [MAT] | significant induction of apoptosis | 31.1 ± 4.2 | 22.3 ± 3.1 | 18.6 ± 2.5 | 11.4 ± 2.2 | 2.1 ± 0.1 | 0.0 ± 0.0 | 39.6 ± 1.1 | 27.6 ± 1.8 | 18.4 ± 2.0 | 8.6 ± 0.9 | 2.2 ± 0.4 | 0.0 ± 0.0 | 49.3 ± 5.7 | 40.3 ± 6.4 | 31.2 ± 4.1 | 18.4 ± 2.5 | 8.6 ± 0.2 | 0.0 ± 0.0 | Promastigote (24 h) IC50 ± SD ([3]; 24 h): 301.8 ± 24.3; Promastigote (48h) IC50 ± SD ([3]; 48 h): 286.2 ± 17.3; Promastigote (72h) IC50 ± SD ([3]; 72 h): 251.6 ± 28.4; Amastigote (24 h) IC50 ± SD ([4]; 24 h): 127.3 ± 14.9; Amastigote (48h) IC50 ± SD ([4]; 48 h): 112.6 ± 9.5; Amastigote (72h) IC50 ± SD ([4]; 72 h): 93.6 ± 15.2
3 | COc1ccc(O)c(C(C)(C)C)c1 [BHA, butylated hydroxyanisole] | – | – | – | – | – | – | – | – | – | – | – | – | – | – | – | – | – | – | – | IC50 of DPPH radical scavenging [5]: 249.3 µg/mL
4 | C[C@@H]1[C@H](O)[C@@H](C)/C=C/C=C/C=C/C=C/C=C/C=C/C=C/[C@H](O[C@@H]2O[C@H](C)[C@@H](O)[C@H](N)[C@@H]2O)C[C@@H]2O[C@](O)(C[C@@H](O)C[C@@H](O)[C@H](O)CC[C@@H](O)C[C@@H](O)CC(=O)O[C@H]1C)C[C@H](O)[C@H]2C(=O)O [Amphotericin B] | significant induction of apoptosis | 34.2 ± 3.6 | 25.3 ± 4.2 | 20.4 ± 1.8 | 13.6 ± 2.6 | 3.6 ± 0.4 | 0.0 ± 0.0 | 41.4 ± 3.0 | 30.1 ± 2.2 | 21.6 ± 2.4 | 10.1 ± 1.9 | 2.6 ± 0.3 | 0.0 ± 0.0 | 50.4 ± 4.8 | 42.3 ± 5.2 | 33.4 ± 3.0 | 20.4 ± 2.4 | 10.3 ± 0.8 | 0.0 ± 0.0 | CC50 at 24 h ([6]; 24 h): 792 ± 28.6 µg/mL (≈ 857 µM); CC50 at 48 h ([6]; 48 h): 772 ± 24.6 µg/mL (≈ 836 µM); CC50 at 72 h ([6]; 72 h): 749 ± 18.6 µg/mL (≈ 810 µM); SI= CC50 Macrophages/IC50 Amastigotes (Selectivity Index) ([7]; 24 h): 5.93; SI = CC50Macrophages/IC50Amastigotes (Selectivity Index) ([7]; 72 h): 7.40; IC50 ([3]; 24 h, read-out: Promastigote (24 h) IC50 ± SD): 308 ± 22 µg/mL (≈ 333 µM); IC50 ([3]; 48 h, read-out: Promastigote (48h) IC50 ± SD): 294 ± 15.3 µg/mL (≈ 318 µM); IC50 ([3]; 72 h, read-out: Promastigote (72h) IC50 ± SD): 264 ± 20.7 µg/mL (≈ 285 µM); IC50 ([4]; 24 h, read-out: Amastigote (24 h) IC50 ± SD): 134 ± 18.6 µg/mL (≈ 145 µM); IC50 ([4]; 48 h, read-out: Amastigote (48h) IC50 ± SD): 129 ± 14.2 µg/mL (≈ 139 µM); IC50 ([4]; 72 h, read-out: Amastigote (72h) IC50 ± SD): 101 ± 18.3 µg/mL (≈ 110 µM)
